What was measured:
[1] = target: T1, human muscarinic M1 receptor (Homo sapiens, UniProt P11229); assay: Phospho-ERK1/2 assay, muscarinic M1; assay type: cell-based; settings: for Emax: CHO, read-out: % Emax cf. ACh (M1)
T1 sequence (P11229 1-460): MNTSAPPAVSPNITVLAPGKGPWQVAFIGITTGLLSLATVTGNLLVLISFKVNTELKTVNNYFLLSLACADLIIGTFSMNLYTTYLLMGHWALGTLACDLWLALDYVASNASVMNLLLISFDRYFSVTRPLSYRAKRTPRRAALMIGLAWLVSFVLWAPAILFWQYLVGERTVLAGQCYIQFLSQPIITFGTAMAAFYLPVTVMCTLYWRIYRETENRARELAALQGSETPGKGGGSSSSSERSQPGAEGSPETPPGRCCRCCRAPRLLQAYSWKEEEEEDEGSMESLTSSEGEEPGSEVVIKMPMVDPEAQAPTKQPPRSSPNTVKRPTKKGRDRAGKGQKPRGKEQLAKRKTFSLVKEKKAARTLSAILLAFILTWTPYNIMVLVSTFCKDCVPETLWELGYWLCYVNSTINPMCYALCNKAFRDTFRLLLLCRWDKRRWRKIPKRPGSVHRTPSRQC
Summary of the method: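 Agonist-induced phospho-ERK1/2 is measured in serum-starved CHO cells carrying the human receptor, with a 5 min stimulation at 37 °C. AlphaScreen SureFire quantifies the signal, from which pEC50 and Emax are obtained.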

[2] = tested on: scopolamine-induced amnesia; assay: Passive avoidance; assay type: in vivo; settings: for reversal of scopolamine-induced amnesia: dose range 3, 10, 30 mg/kg po, scopolamine 1 mg/kg i.p.; for significance of reversal of scopolamine-induced amnesia: p<0.05 Bonferroni post hoc test
Method: (§1) FIGS. 1-4 show the efficacy of the compounds of the invention. FIGS. 1-3 relate to the passive avoidance assay described in part B. Studies were carried out as described previously by Foley et al., (2004) Neuropsychopharmacology. In the passive avoidance task scopolamine administration (1 mg/kg, i.p.) at 6 hours following training rendered animals amnesic of the paradigm. A dose range of 3, 10, and 30 mg/kg (po) free base, administered 90 minutes prior to the training period via oral gavage, was examined.
as §1, with “Studies” for “FIGS. 1-4 show the efficacy of the compounds of the invention. FIGS. 1-3 relate to the passive avoidance assay described in part B. Studies”

[3] = tested on: Male Wistar rats; assay: Novel object recognition; assay type: in vivo; settings: 10 and 30 mg/kg oral gavage 90 minutes prior to training; p<0.05
Method: The novel object recognition paradigm is based on the greater spontaneous exploration of a novel object, compared with a familiar object, shown by rodents (Ennaceur and Delacour, 1988). […] Male Wistar rats were assessed for cognitive ability in a test apparatus comprising an open-field arena placed in a sound-attenuated room under dimmed lighting. Images of the open-field were captured by digital camera, and viewed on a monitor in an adjoining room. Each rat was subjected to the procedure separately and care taken to remove any olfactory/taste cues by cleaning the arena and test objects with alcohol between trials and rats. All tests are video scored blind to treatment. Following a 10-minute habituation period, each rat was placed into the test arena in the presence of two identical objects (plastic shapes). Each rat was placed facing the same direction at the same position in the arena, and the time spent actively exploring the objects during a 5-minute training period (T1) was recorded. The rat is returned to its home cage between tests. After 24 hours, each rat was again placed in the test arena for 5 minutes (T2) in the presence of one of the familiar objects and a novel object, and the time spent exploring both objects again recorded. The presentation order and position of the objects (left/right) was randomized between rats to prevent bias from order or place preference. Doses of 3, 10 or 30 mg/kg of test compound were administered by oral gavage 90 minutes prior to training (n=8). Donepezil (0.1 mg/kg) and galanthamine (3 mg/kg) were administered via intraperitoneal injection 60 minutes prior to training. Vehicle-treated controls were employed for comparison.

## CCOC(=O)N1CCCC(N2CCC(C(=O)NC3(C)CCC3)CC2)CC1 (stereo not drawn) [Example 27, ethyl 4-(4-((1-methylcyclobutyl)carbamoyl)piperidin-1-yl)azepane-1-carboxylate]
[1]
  EC50: 45.7 nM
  Emax: 117%
[2]; 90 minutes prior to training
  reversal of scopolamine-induced amnesia: reverse scopolamine-induced amnesia of the paradigm in a dose-dependent manner
[2]; po, free base, 90 minutes prior to training, scopolamine 1 mg/kg i.p. 6 hours after training, read-out: approximate ED50, reversal of scopolamine-induced amnesia
  ED50: ~10 mg/kg

## CCOC(=O)N1CCC[C@H](N2CCC(C(=O)NC3(C)CCC3)CC2)CC1 [Example 65, ethyl (4S)-4-{4-[(1-methylcyclobutyl)carbamoyl]piperidin-1-yl)azepane-1-carbondate]
[3]
  novel object recognition memory vs vehicle-treated controls: significantly improved novel object recognition memory
[1]
  EC50: 31.6 nM
  Emax: 104%
[2]; 10 mg/kg, FIG. 3
  effect compared with donepezil (0.1 mg/kg, i.p.) positive control: not significantly different to that produced by the cholinesterase inhibitor donepezil
[2]; 10 and 30 mg/kg, FIG. 2
  effect compared with donepezil (0.1 mg/kg, i.p.) positive control: not significantly different to that produced by the cholinesterase inhibitor donepezil
[2]; acute 10 mg/kg po, FIG. 3
  significance of reversal of scopolamine-induced amnesia: significant effects
[2]; acute 10 and 30 mg/kg, FIG. 2
  significance of reversal of scopolamine-induced amnesia: significant effects
[2]; 90 minutes prior to training
  reversal of scopolamine-induced amnesia: reverse scopolamine-induced amnesia of the paradigm in a dose-dependent manner

From US10973832B2, “Muscarinic M1 receptor agonists” (Heptares Therapeutics Limited, priority 2011, dated 2021)
